Converted amounts (≈) assume the structure as drawn.
Legend:
Carbonic anhydrase 2 [1] = molecular target: T1, Carbonic anhydrase 2 (Homo sapiens, UniProt P00918)
Description: Tested for ability to compete with dansylamide for binding to human erythrocyte carbonic-anhydrase-II (HCA-II)

Oryctolagus cuniculus [2] = species on record: Oryctolagus cuniculus
Description: Change in intraocular pressure (IOP) was measured in the normotensive pigmented rabbit in presence of MK-927

[3] = The pKa value in 30% EtOH/H2O; type: physicochemical
physchem = details: pH 5.2 buffer, pH 5.2, Solubility
Oryctolagus cuniculus [4] = species on record: Oryctolagus cuniculus; remark: listed apart in the source
Description: Reduction of the elevated intraocular pressure (IOP) in alpha-chymotrypsin treated albino rabbit

Oryctolagus cuniculus [5] = species on record: Oryctolagus cuniculus; remark: listed apart in the source
Description: Change in intraocular pressure (IOP) was measured in the normotensive pigmented rabbit

Carbonic anhydrase 2 [6] = molecular target: T1, Carbonic anhydrase 2; remark: listed apart in the source
Description: Tested for ability to inhibit human erythrocyte carbonic-anhydrase-II- (HCA II) catalyzed carbon dioxide hydration

[7] = buffer, pH 5.2
Description: Solubility in pH 5.2 buffer

## COCCN(CCOC)CCC1CNc2cc(S(N)(=O)=O)sc2S1(=O)=O (configuration not stated)
Carbonic anhydrase 2 [1]
  Ki: 0.97 nM
Oryctolagus cuniculus [2]
  Delta IOP: -5.1 mmHg
[3]
  pKa: 6.4
physchem
  solubility: > 6.7 mg/mL
Oryctolagus cuniculus [4]
  Delta IOP: 4 mmHg
Oryctolagus cuniculus [5]
  Delta IOP: -4.1 mmHg
Carbonic anhydrase 2 [6]
  IC50: 2.14 nM

## COCCOCCN(CCOC)C(=O)CC1C(=O)Nc2cc(S(N)(=O)=O)sc2S1(=O)=O (configuration not stated)
Carbonic anhydrase 2 [1]
  Ki: 3.6 nM
Carbonic anhydrase 2 [6]
  IC50: 2.18 nM

## NS(=O)(=O)c1cc2c(s1)SCC(=O)N2
Carbonic anhydrase 2 [1]
  Ki: 24 nM
Carbonic anhydrase 2 [6]
  IC50: 12.8 nM

## NS(=O)(=O)c1cc2c(s1)S(=O)(=O)C(CCO)CN2 (configuration not stated)
Carbonic anhydrase 2 [1]
  Ki: 1.19 nM
[3]
  pKa: 8.45
physchem
  solubility: 4.5 mg/mL (≈ 14.4 mM)
Carbonic anhydrase 2 [6]
  IC50: 1.9 nM

## NS(=O)(=O)c1cc2c(s1)S(=O)(=O)CCN2
Carbonic anhydrase 2 [1]
  Ki: 3.36 nM
[3]
  pKa: 8.8
physchem
  solubility: 0.19 mg/mL (≈ 0.708 mM)
Carbonic anhydrase 2 [6]
  IC50: 2.46 nM

## COCCOCCN(CCOC)CCC1CNc2cc(S(N)(=O)=O)sc2S1(=O)=O (configuration not stated)
Carbonic anhydrase 2 [1]
  Ki: 4.14 nM
Oryctolagus cuniculus [2]
  Delta IOP: -5.3 mmHg
[3]
  pKa: 6.55
physchem
  solubility: 11.8 mg/mL (≈ 25 mM)
Oryctolagus cuniculus [4]
  Delta IOP: 6 mmHg
Oryctolagus cuniculus [5]
  Delta IOP: -1.6 mmHg
Carbonic anhydrase 2 [6]
  IC50: 1.45 nM

## NS(=O)(=O)c1cc2c(s1)SC(CC(=O)O)C(=O)N2 (configuration not stated)
Carbonic anhydrase 2 [1]
  Ki: 47.5 nM
[3]
  pKa: 4.3
physchem
  solubility: 2.4 mg/mL (≈ 7.78 mM)

## CC(C)CNC(=O)CC1Sc2sc(S(N)(=O)=O)cc2NC1=O (configuration not stated)
[3]
  pKa: 3.65
physchem
  solubility: 0.03 mg/mL (≈ 0.0825 mM)

## NS(=O)(=O)c1cc2c(s1)S(=O)(=O)C1(CC1)CN2
Carbonic anhydrase 2 [1]
  Ki: 10.9 nM
[3]
  pKa: 8.29
physchem
  solubility: 0.52 mg/mL (≈ 1.77 mM)
Carbonic anhydrase 2 [6]
  IC50: 2 nM

## NS(=O)(=O)c1cc2c(s1)SC(CCO)CN2 (configuration not stated)
[3]
  pKa: 9.62
physchem
  solubility: 0.64 mg/mL (≈ 2.28 mM)

## NS(=O)(=O)c1cc2c(s1)S(=O)(=O)C(CCN1CCOCC1)CN2 (configuration not stated)
Oryctolagus cuniculus [2]
  Delta IOP: -4.4 mmHg
[3]
  pKa: 3.23
physchem
  solubility: 2.1 mg/mL (≈ 5.5 mM)
Oryctolagus cuniculus [4]
  Delta IOP: 5 mmHg
Oryctolagus cuniculus [5]
  Delta IOP: -2.8 mmHg

## COCCOCCN(CCOC)CCC1C(=O)Nc2cc(S(N)(=O)=O)sc2S1(=O)=O (configuration not stated)
Carbonic anhydrase 2 [1]
  Ki: 4.14 nM
Carbonic anhydrase 2 [6]
  IC50: 5.15 nM

## NS(=O)(=O)c1cc2c(s1)S(=O)(=O)CC(=O)N2
Carbonic anhydrase 2 [1]
  Ki: 2.9 nM
[3]
  pKa: 7.43
physchem
  solubility: 0.6 mg/mL (≈ 2.13 mM)
Carbonic anhydrase 2 [6]
  IC50: 3.7 nM

## CC(C)CNCCC1CNc2cc(S(N)(=O)=O)sc2S1(=O)=O (configuration not stated)
Carbonic anhydrase 2 [1]
  Ki: 4.05 nM
Oryctolagus cuniculus [2]
  Delta IOP: -6.2 mmHg
[3]
  pKa: 8.18
physchem
  solubility: 24 mg/mL (≈ 65.3 mM)
Oryctolagus cuniculus [4]
  Delta IOP: -4.5 mmHg
Oryctolagus cuniculus [5]
  Delta IOP: -2.1 mmHg
Carbonic anhydrase 2 [6]
  IC50: 2.9 nM

## CC(C)CN[C@H]1CCS(=O)(=O)c2sc(S(N)(=O)=O)cc21 (stereo in doubt; form 1) [SEZOLAMIDE]
[7]
  solubility: > 16 mg/mL

## CC(C)CN[C@H]1CCS(=O)(=O)c2sc(S(N)(=O)=O)cc21 (stereo in doubt; form 2) [SEZOLAMIDE]
[7]
  solubility: 33 mg/mL (≈ 97.5 mM)

Reference: ChEMBL document CHEMBL1127476, “3-substituted thieno[2,3-b][1,4]thiazine-6-sulfonamides. A novel class of topically active carbonic anhydrase inhibitors” (J Med Chem, 1994)
